Experimental data published in patent US20260022142A1, “MACROCYCLIC IMMUNOMODULATORS” (Bristol-Myers Squibb Company, priority 2022, published 2026).
Bridge positions count the residues as written; N and C are the ends. Square brackets hold non-standard residues; d marks the D form. Peptide text beside a SMILES is read from it. * marks the point of attachment. ξ: configuration not given here. Phe(3-CF3) = N[C@@H](Cc1cccc(C(F)(F)F)c1)C(=O)O; Ala(morpholin-4-yl) = N[C@@H](CN1CCOCC1)C(=O)O; Phe(4-CONH2) = NC(=O)c1ccc(C[C@H](N)C(=O)O)cc1; Phe(4-COOH) = N[C@@H](Cc1ccc(C(=O)O)cc1)C(=O)O; Bip = N[C@@H](Cc1ccc(-c2ccccc2)cc1)C(=O)O; NH(CH2)14COOH = O=C(O)CCCCCCCCCCCCCCN*; Phe(3-Me) = Cc1cccc(C[C@H](N)C(=O)O)c1; NH(CH2)12COOH = O=C(O)CCCCCCCCCCCCN*; Val(3-OH) = CC(C)(O)[C@H](N)C(=O)O; Cha = N[C@@H](CC1CCCCC1)C(=O)O; Cit = NC(=O)NCCC[C@H](N)C(=O)O; Thr(3ξ) = CC(O)[C@H](N)C(=O)O; PEG4 = NCCOCCOCCOCCOCCC(=O)O; 12Ado = NCCCCCCCCCCCC(=O)O; Carboxymethyl = O=C(O)C*; Orn = NCCC[C@H](N)C(=O)O; Aun = NCCCCCCCCCCC(=O)O; Dab = NCC[C@H](N)C(=O)O; Dap = NC[C@H](N)C(=O)O; AEEA = NCCOCCOCC(=O)O; ξC = NC(CS)C(=O)O

target: T1, PD-1/PD-L1 interaction (PE-labeled human PD-L1-Ig binding to Jurkat cell line over-expressing human PD-1) (Homo sapiens, UniProt Q15116); assay: Jurkat-PD-1 Cell Binding High-Content Screening Assay (CBA); format: cell-based; details: Jurkat cell line over-expressing human PD-1; PE-labeled PD-L1-Ig 20 nM final; read-out: Jurkat hPD1-PDL1 IC50
T1 construct: expressed in transfected cells; host or cells: Jurkat
T1 sequence (Q15116 25-288): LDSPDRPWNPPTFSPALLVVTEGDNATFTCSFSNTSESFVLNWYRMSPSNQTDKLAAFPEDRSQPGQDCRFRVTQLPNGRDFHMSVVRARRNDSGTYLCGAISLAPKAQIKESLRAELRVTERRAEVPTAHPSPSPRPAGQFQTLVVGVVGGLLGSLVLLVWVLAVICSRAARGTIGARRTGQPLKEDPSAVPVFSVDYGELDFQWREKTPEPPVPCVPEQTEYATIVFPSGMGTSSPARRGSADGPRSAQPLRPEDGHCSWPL
Summary of the method: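 Binding of fluorescent PD-L1-Ig (phycoerythrin on Ig tag, 20 nM final, 1 h) measured by high-content imaging of fixed, Hoechst-counterstained Jurkat-hPD-1 cells. Compound added 2 h at 37° C beforehand, in DMEM with 10% fetal calf serum.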

Row | Compound | IC50 [nM]
1 | CC(C)C[C@H]1NC(=O)[C@H](CCCN)NC(=O)[C@H](Cc2ccc(C(=O)O)cc2)NC(=O)[C@H](Cc2ccc(-c3ccccc3)cc2)NC(=O)[C@H](Cc2ccc(C(=O)O)cc2)NC(=O)[C@H](Cc2cccc(C(F)(F)F)c2)NC(=O)[C@H](CC(=O)O)NC(=O)[C@H](Cc2ccc(OCC(=O)O)cc2)NC(=O)[C@H](C)NC(=O)CSC[C@@H](C(=O)N[C@@H](CCN)C(=O)NCCOCCOCCOCCOCCC(=O)NCCCCCCCCCCCCC(=O)O)NC(=O)[C@H](Cc2c[nH]cn2)NC(=O)[C@H](C(C)(C)O)NC(=O)[C@H](CC2CCCCC2)NC(=O)[C@H](CCN)NC1=O [Compound 2953] ({CH2CO}-AY(Carboxymethyl)D[Phe(3-CF3)][Phe(4-COOH)][Bip][Phe(4-COOH)][Orn][dL][Dab][Cha][Val(3-OH)]HC[Dab][PEG4]-{NH(CH2)12COOH}; thioether N-14) | 49.3
2 | Cc1cccc(C[C@@H]2NC(=O)[C@H](CC(=O)O)NC(=O)[C@H](Cc3ccc(OCC(=O)O)cc3)NC(=O)[C@H](CN)NC(=O)CSC[C@@H](C(=O)N[C@@H](CCN)C(=O)N[C@@H](CO)C(=O)N[C@@H](CO)C(=O)NCCCCCCCCCCC(=O)O)NC(=O)[C@H]([C@@H](C)O)NC(=O)[C@H](C(C)C)NC(=O)[C@H](CC3CCCCC3)NC(=O)[C@H](CCN)NC(=O)[C@@H](CC(C)C)NC(=O)[C@H](CCCN)NC(=O)[C@H](CCCNC(N)=O)NC(=O)[C@H](Cc3ccc(-c4ccccc4)cc3)NC(=O)[C@H](C(C)C)NC2=O)c1 [Compound 2853] ({CH2CO}-[Dap]Y(Carboxymethyl)D[Phe(3-Me)]V[Bip][Cit][Orn][dL][Dab][Cha]VTC[Dab]SS[Aun]-OH; thioether N-14) | 65.5
3 | CC(=O)NCCCC[C@@H]1NC(=O)[C@H](Cc2ccc(-c3ccccc3)cc2)NC(=O)[C@H](Cc2ccc(O)cc2)NC(=O)[C@H](Cc2cccc(C)c2)NC(=O)[C@H](CC(=O)O)NC(=O)[C@H](Cc2ccc(OCC(=O)O)cc2)NC(=O)[C@H](C(C)O)NC(=O)CSC[C@@H](C(=O)N[C@@H](CCN)C(=O)N[C@@H](CO)C(=O)NCCCCCCCCCCCC(=O)O)NC(=O)[C@H](CCCN)NC(=O)[C@H](C(C)(C)O)NC(=O)[C@H](CC2CCCCC2)NC(=O)[C@H](CCN)NC(=O)[C@@H](CC(C)C)NC(=O)[C@H](CCCN)NC1=O (stereo partly drawn) [Compound 3622] ({CH2CO}-[Thr(3ξ)]Y(Carboxymethyl)D[Phe(3-Me)]Y[Bip]K(Ac)[Orn][dL][Dab][Cha][Val(3-OH)][Orn]C[Dab]S[12Ado]-OH; thioether N-14) | 18.3
4 | Cc1cccc(C[C@@H]2NC(=O)[C@H](CC(=O)O)NC(=O)[C@H](Cc3ccc(OCC(=O)O)cc3)NC(=O)[C@H](CN)NC(=O)CSC[C@@H](C(=O)N[C@@H](CCN)C(=O)NCCCCCCCCCCCCCCC(=O)O)NC(=O)[C@H](C(C)O)NC(=O)[C@H](C(C)C)NC(=O)[C@H](CC3CCCCC3)NC(=O)[C@H](CCN)NC(=O)[C@@H](CC(C)C)NC(=O)[C@H](CCCN)NC(=O)[C@H](CCCNC(N)=O)NC(=O)[C@H](Cc3ccc(-c4ccccc4)cc3)NC(=O)[C@H](C(C)C)NC2=O)c1 (stereo partly drawn) [Compound 3127] ({CH2CO}-[Dap]Y(Carboxymethyl)D[Phe(3-Me)]V[Bip][Cit][Orn][dL][Dab][Cha]V[Thr(3ξ)]C[Dab]-{NH(CH2)14COOH}; thioether N-14) | 308
5 | Cc1cccc(C[C@@H]2NC(=O)[C@H](CC(=O)O)NC(=O)[C@H](Cc3ccc(OCC(=O)O)cc3)NC(=O)[C@H](Cc3ccc(OCC(=O)O)cc3)NC(=O)CSC[C@@H](C(=O)N[C@@H](CCCCN)C(=O)NCCCCCCCCCCC(=O)O)NC(=O)[C@H](CO)NC(=O)[C@H](C(C)C)NC(=O)[C@H](CC3CCCCC3)NC(=O)[C@H](CCN)NC(=O)[C@@H](CC(C)C)NC(=O)[C@H](CCCN)NC(=O)[C@H](C(C)C)NC(=O)[C@H](Cc3ccc(-c4ccccc4)cc3)NC(=O)[C@H](CC(C)C)NC2=O)c1 [Compound 1058] ({CH2CO}-Y(Carboxymethyl)Y(Carboxymethyl)D[Phe(3-Me)]L[Bip]V[Orn][dL][Dab][Cha]VSCK[Aun]-OH; thioether N-14) | 57.2

Now those with a lower IC50, led by results:

Row | IC50 [nM] | Compound
6 | 16.4 | Cc1cccc(C[C@@H]2NC(=O)[C@H](CC(=O)O)NC(=O)[C@H](Cc3ccc(OCC(=O)O)cc3)NC(=O)[C@H](CN)NC(=O)CSC[C@@H](C(=O)N[C@@H](CCN)C(=O)NCCOCCOCC(=O)NCCCCCCCCCCC(=O)O)NC(=O)[C@H](CN)NC(=O)[C@H](C(C)C)NC(=O)[C@H](CC3CCCCC3)NC(=O)[C@H](CCN)NC(=O)[C@@H](CC(C)C)NC(=O)[C@H](CCCN)NC(=O)[C@H](CCCNC(N)=O)NC(=O)[C@H](Cc3ccc(-c4ccccc4)cc3)NC(=O)[C@H](C(C)C)NC2=O)c1 [Compound 2633] ({CH2CO}-[Dap]Y(Carboxymethyl)D[Phe(3-Me)]V[Bip][Cit][Orn][dL][Dab][Cha]V[Dap]C[Dab][AEEA][Aun]-OH; thioether N-14)
7 | 15.4 | Cc1cccc(C[C@@H]2NC(=O)[C@H](CC(=O)O)NC(=O)[C@H](Cc3ccc(OCC(=O)O)cc3)NC(=O)[C@H](CN)NC(=O)CSCC(C(=O)NCCOCCOCC(=O)NCCCCCCCCCCC(=O)O)NC(=O)[C@H](CN)NC(=O)[C@H](C(C)C)NC(=O)[C@H](CC3CCCCC3)NC(=O)[C@H](CCN)NC(=O)[C@@H](CC(C)C)NC(=O)[C@H](CCCN)NC(=O)[C@H](CCCNC(N)=O)NC(=O)[C@H](Cc3ccc(-c4ccccc4)cc3)NC(=O)[C@H](C(C)C)NC2=O)c1 (stereo partly drawn) [Compound 2645] ({CH2CO}-[Dap]Y(Carboxymethyl)D[Phe(3-Me)]V[Bip][Cit][Orn][dL][Dab][Cha]V[Dap][ξC][AEEA][Aun]-OH; thioether N-14)
8 | 13.3 | CC(C)C[C@H]1NC(=O)[C@H](CCCN)NC(=O)[C@H](Cc2ccc(O)cc2)NC(=O)[C@H](Cc2ccc(-c3ccccc3)cc2)NC(=O)[C@H](C(C)C)NC(=O)[C@H](Cc2c[nH]c3ccccc23)NC(=O)[C@H](CC(=O)O)NC(=O)[C@H](Cc2ccc(C(=O)O)cc2)NC(=O)[C@H](CC(N)=O)NC(=O)CSC[C@@H](C(=O)N[C@@H](CCN)C(=O)NCCCCCCCCCCC(=O)O)NC(=O)[C@H](CCC(=O)O)NC(=O)[C@H](C(C)C)NC(=O)[C@H](CC2CCCCC2)NC(=O)[C@H](CCN)NC1=O [Compound 3392] ({CH2CO}-N[Phe(4-COOH)]DWV[Bip]Y[Orn][dL][Dab][Cha]VEC[Dab][Aun]-OH; thioether N-14)
9 | 10.5 | Cc1cccc(C[C@@H]2NC(=O)[C@H](CC(=O)O)NC(=O)[C@H](Cc3ccc(OCC(=O)O)cc3)NC(=O)[C@H](CN)NC(=O)CSC[C@@H](C(=O)N[C@@H](CC(=O)O)C(=O)NCCOCCOCC(=O)NCCCCCCCCCCC(=O)O)NC(=O)[C@H](CCCN)NC(=O)[C@H](C(C)C)NC(=O)[C@H](CC3CCCCC3)NC(=O)[C@H](CCN)NC(=O)[C@@H](CC(C)C)NC(=O)[C@H](CCCN)NC(=O)[C@H](CCCNC(N)=O)NC(=O)[C@H](Cc3ccc(-c4ccccc4)cc3)NC(=O)[C@H](C(C)C)NC2=O)c1 [Compound 2020] ({CH2CO}-[Dap]Y(Carboxymethyl)D[Phe(3-Me)]V[Bip][Cit][Orn][dL][Dab][Cha]V[Orn]CD[AEEA][Aun]-OH; thioether N-14)
10 | 7.2 | Cc1cccc(C[C@@H]2NC(=O)[C@H](CC(=O)O)NC(=O)[C@H](Cc3ccc(OCC(=O)O)cc3)NC(=O)[C@H](CN)NC(=O)CSC[C@@H](C(=O)N[C@@H](CCN)C(=O)NCCOCCOCC(=O)NCCCCCCCCCCC(=O)O)NC(=O)[C@H](CCCN)NC(=O)[C@H](C(C)C)NC(=O)[C@H](CC3CCCCC3)NC(=O)[C@H](CCN)NC(=O)[C@@H](CC(C)C)NC(=O)[C@H](CCCN)NC(=O)[C@H](Cc3ccc(C(N)=O)cc3)NC(=O)[C@H](Cc3ccc(-c4ccccc4)cc3)NC(=O)[C@H](Cc3ccc(O)cc3)NC2=O)c1 [Compound 2045] ({CH2CO}-[Dap]Y(Carboxymethyl)D[Phe(3-Me)]Y[Bip][Phe(4-CONH2)][Orn][dL][Dab][Cha]V[Orn]C[Dab][AEEA][Aun]-OH; thioether N-14)
11 | 5.5 | Cc1cccc(C[C@@H]2NC(=O)[C@H](CC(=O)O)NC(=O)[C@H](Cc3ccc(OCC(=O)O)cc3)NC(=O)[C@H](CN3CCOCC3)NC(=O)CSC[C@@H](C(=O)N[C@@H](CCN)C(=O)NCCOCCOCC(=O)NCCOCCOCC(=O)NCCCCCCCCCCCCC(=O)O)NC(=O)[C@H](CCC(=O)O)NC(=O)[C@H](C(C)(C)O)NC(=O)[C@H](CC3CCCCC3)NC(=O)[C@H](CCN)NC(=O)[C@@H](CC(C)C)NC(=O)[C@H](CCCN)NC(=O)[C@H](Cc3ccc(C(=O)O)cc3)NC(=O)[C@H](Cc3ccc(-c4ccccc4)cc3)NC(=O)[C@H](Cc3ccc(C(=O)O)cc3)NC2=O)c1 [Compound 2898] ({CH2CO}-[Ala(morpholin-4-yl)]Y(Carboxymethyl)D[Phe(3-Me)][Phe(4-COOH)][Bip][Phe(4-COOH)][Orn][dL][Dab][Cha][Val(3-OH)]EC[Dab][AEEA][AEEA]-{NH(CH2)12COOH}; thioether N-14)
12 | 5.2 | Cc1cccc(C[C@@H]2NC(=O)[C@H](CC(=O)O)NC(=O)[C@H](Cc3ccc(OCC(=O)O)cc3)NC(=O)[C@H](C(C)O)NC(=O)CSC[C@@H](C(=O)N[C@@H](CCN)C(=O)NCCOCCOCC(=O)NCCCCCCCCCCC(=O)O)NC(=O)[C@H](CCC(=O)O)NC(=O)[C@H](C(C)C)NC(=O)[C@H](CC3CCCCC3)NC(=O)[C@H](CCN)NC(=O)[C@@H](CC(C)C)NC(=O)[C@H](CCCN)NC(=O)[C@H](Cc3ccc(OCC(=O)O)cc3)NC(=O)[C@H](Cc3ccc(-c4ccccc4)cc3)NC(=O)[C@H](Cc3ccc(OCC(=O)O)cc3)NC2=O)c1 (stereo partly drawn) [Compound 3806] ({CH2CO}-[Thr(3ξ)]Y(Carboxymethyl)D[Phe(3-Me)]Y(Carboxymethyl)[Bip]Y(Carboxymethyl)[Orn][dL][Dab][Cha]VEC[Dab][AEEA][Aun]-OH; thioether N-14)
